Source: PubChem BioAssay AID330 (DTP/NCI, 2004)
Where “and” joins values, the source holds several entries; their conditions need not be identical. Equal entries are not always repeated. Toxic doses and inconclusive results are not listed.

Test system: P388 leukemia ip, CD2F1 mice, survival T/C
Assay: NCI In Vivo Anticancer Drug Screen. Data for tumor model P388 Leukemia (intraperitoneal) in CD2F1 (CDF1) mice
Conditions: endpoint: median survival time, higher = longer survival
In short: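 Mice carrying the transplanted tumor received test compound or vehicle. Survival was recorded in each group, and the value is the treated-group measurement divided by that of the vehicle-treated control group.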

[1] = dose: 100.0 mg/kg/injection, schedule: Q04DX003 (ip), vehicle: saline with Tween-80
[2] = dose: 200.0 mg/kg/injection, schedule: Q04DX003 (ip), vehicle: saline with Tween-80

Structure (SMILES): COC(=O)c1cc(OCC#CC#CCOc2ccc(O)c(C(=O)OC)c2)ccc1O
- T/C (dose: 60.0 mg/kg/injection, schedule: Q01DX005 (ip), vehicle: saline with Tween-80): 95 % of control
- T/C (dose: 120.0 mg/kg/injection, schedule: Q01DX005 (ip), vehicle: saline with Tween-80): 89 % of control
- T/C (dose: 240.0 mg/kg/injection, schedule: Q01DX005 (ip), vehicle: saline with Tween-80): 86 % of control

Structure (SMILES): C#CC(C)(CC(C)C)OCCN(CC)CC (configuration not stated)
- T/C (dose: 6.25 mg/kg/injection, schedule: Q01DX005 (ip), vehicle: saline with Tween-80): 106 % of control
- T/C (dose: 12.5 mg/kg/injection, schedule: Q01DX005 (ip), vehicle: saline with Tween-80): 104 % of control
- T/C (dose: 25.0 mg/kg/injection, schedule: Q01DX005 (ip), vehicle: saline with Tween-80): 104 % of control

Structure (SMILES): COc1ccc(N=Nc2c(O)n(-c3ccc(Br)cc3)c(=S)n(-c3ccc(OC)cc3)c2=O)cc1
- T/C [1]: 96 % of control
- T/C [2]: 87 % of control

Structure (SMILES): Cc1nc(-c2nc(C(=O)NCCC[S+](C)C)cs2)cs1
- T/C (dose: 50.0 mg/kg/injection, schedule: Q01DX005 (ip), vehicle: saline): 104 % of control

Structure (SMILES): CCCCCCCC1SC(=S)NC1=O (configuration not stated)
- T/C (dose: 6.25 mg/kg/injection, schedule: Q04DX003 (ip), vehicle: other): 109 % of control
- T/C (dose: 12.5 mg/kg/injection, schedule: Q04DX003 (ip), vehicle: other): 101 % of control
- T/C (dose: 25.0 mg/kg/injection, schedule: Q04DX003 (ip), vehicle: other): 108 % of control
- T/C (dose: 50.0 mg/kg/injection, schedule: Q04DX003 (ip), vehicle: other): 108 % of control
- T/C (dose: 100.0 mg/kg/injection, schedule: Q04DX003 (ip), vehicle: other): 101 % of control

Structure (SMILES): CC(C)=CCC(OC(=O)C=C(C)C)c1cc(O)c2c(O)ccc(O)c2c1O.[Cu] (configuration not stated)
- T/C (dose: 100.0 mg/kg/injection, schedule: Q04DX002 (ip), vehicle: saline with Tween-80): 101 % of control
- T/C (dose: 200.0 mg/kg/injection, schedule: Q04DX002 (ip), vehicle: saline with Tween-80): 104 % of control

Structure (SMILES): COc1ccccc1N=C(C)C1C(=O)c2ccccc2C1=O
- T/C (dose: 50.0 mg/kg/injection, schedule: Q01DX005 (ip), vehicle: Klucel (hydroxypropylcellulose) (HPC)): 104 % of control
- T/C (dose: 100.0 mg/kg/injection, schedule: Q01DX005 (ip), vehicle: Klucel (hydroxypropylcellulose) (HPC)): 104 % of control
- T/C (dose: 200.0 mg/kg/injection, schedule: Q01DX005 (ip), vehicle: Klucel (hydroxypropylcellulose) (HPC)): 100 % of control

Structure (SMILES): N#C/C(=C/c1cccs1)c1ccc(Cl)cc1
- T/C (dose: 100.0 mg/kg/injection, schedule: Q04DX003 (ip), vehicle: Klucel (hydroxypropylcellulose) (HPC)): 109 % of control
- T/C (dose: 200.0 mg/kg/injection, schedule: Q04DX003 (ip), vehicle: Klucel (hydroxypropylcellulose) (HPC)): 99 % of control

Structure (SMILES): Cc1csc(NC(=S)NC(=O)c2ccccc2)n1
- T/C [1]: 91 % of control
- T/C [2]: 90 % of control

Structure (SMILES): OC(C(=S)N1CCCC1)(c1ccccc1)c1ccccc1
- T/C (dose: 50.0 mg/kg/injection, schedule: Q01DX009 (ip), vehicle: Klucel (hydroxypropylcellulose) (HPC)): 103 % of control
- T/C (dose: 100.0 mg/kg/injection, schedule: Q01DX009 (ip), vehicle: Klucel (hydroxypropylcellulose) (HPC)): 103 % of control
- T/C (dose: 200.0 mg/kg/injection, schedule: Q01DX009 (ip), vehicle: Klucel (hydroxypropylcellulose) (HPC)): 100 % of control

Structure (SMILES): CCN(CCO)CC(C)Nc1ccc([N+](=O)[O-])c2sc3ccccc3c(=O)c12 (configuration not stated)
- T/C (dose: 25.0 mg/kg/injection, schedule: Q01DX009 (ip), vehicle: saline with Tween-80): 159 % of control
- T/C (dose: 50.0 mg/kg/injection, schedule: Q01DX009 (ip), vehicle: saline with Tween-80): 190 % of control and 213 % of control
- T/C (dose: 66.0 mg/kg/injection, schedule: Q04DX003 (ip), vehicle: saline with Tween-80): 159 % of control
- T/C (dose: 100.0 mg/kg/injection, schedule: Q01DX009 (ip), vehicle: saline with Tween-80): 100 % of control
- T/C [1]: 213 % of control
- T/C (dose: 150.0 mg/kg/injection, schedule: Q04DX003 (ip), vehicle: saline with Tween-80): 118 % of control

Structure (SMILES): Cc1nc(C)n2c(C)nnc2c1C
- T/C (dose: 25.0 mg/kg/injection, schedule: Q04DX003 (ip), vehicle: saline): 101 % of control
- T/C (dose: 50.0 mg/kg/injection, schedule: Q04DX003 (ip), vehicle: saline): 111 % of control
- T/C (dose: 100.0 mg/kg/injection, schedule: Q04DX003 (ip), vehicle: saline): 109 % of control

Structure (SMILES): O=C(C=C(C(F)(F)F)C(F)(F)F)c1ccc(Cl)c2ccccc12
- T/C (dose: 12.5 mg/kg/injection, schedule: Q04DX003 (ip), vehicle: saline with Tween-80): 113 % of control
- T/C (dose: 25.0 mg/kg/injection, schedule: Q04DX003 (ip), vehicle: saline with Tween-80): 118 % of control
